The subject of one experiment is HC2 20d2/c tumor cells. The experiment can be described thus: Regression of HC2 20d2/c tumors in mice vaccinated with VEGF peptides. Type of experiment: in vivo. Conditions: FIG. 2; for reduction in average tumor volume: by the end of the study; for tumor regression (average tumor volume vs. time): mice injected with HC2 20d2/c tumor cells, vaccinated four days post-injection with peptide plus murine GM-CSF. Here is the method:
The VEGF peptides and the SEQ ID NO: 85 homodimer were evaluated for their ability to elicit an anti-tumor immune response in a mouse tumor model. A total of 112 syngeneic mice were divided into eight treatment groups of 14 mice each, and injected with HC2 20d2/c tumor cells. Four days post-injection, the first through fifth treatment groups were vaccinated in the left inguinal area with 100 μg of either SEQ ID NO: 73, SEQ ID NO: 75, SEQ ID NO: 77, SEQ ID NO: 79, or the SEQ ID NO: 81 dimer diluted in 100 μl of PBS mixed with 45 ng of murine GM-CSF as an adjuvant. The total volume of phosphate buffered saline (PBS) was 150 microliters with 2 mg/ml mouse serum albumin as a carrier. The sixth treatment group was vaccinated as above with a combination of all four VEGF peptides and the SEQ ID NO: 81 homodimer (60 μg each) in a total of 200 microliters of PBS with 45 ng of murine GM-CSF and 2 mg/ml mouse serum albumin. The seventh treatment group was vaccinated as above with 100 μg of a peptide derived from a mutant epidermal growth factor receptor (EGFR) protein called EGFRvIII (SEQ ID NO: 82). The vaccine composition also contained 45 ng of murine GM-CSF and 2 mg/ml mouse serum albumin. The EGFRvIII mutation is the result of a genomic rearrangement in the EGFR gene, and the EGFRvIII peptide (SEQ ID NO: 82) is reported to induce an immune response against tumor cells expressing the mutant receptor. The eighth treatment group was vaccinated with GM-CSF and 2 mg/ml mouse serum albumin in PBS with no peptide, as a control. All treatment groups were then injected once daily for the next 3 days with the 45 ng GM-CSF in the original area of vaccination.

Experiment [1] deals with HC2 20d2/c tumor cells pulsed with the immunizing peptide. The experiment is described as follows: ELISPOT assay (anti-interferon-gamma) of cytotoxic T lymphocyte activity of splenocytes from immunized mice. The following applies: FIG. 5; for CTL response compared with mouse treated with SEQ ID NO: 82 (EGFRvIII): mice which had undergone tumor regression. The format is cell-based. The method, then: Briefly, the ELISPOT method is performed by coating a cell culture dish or well with a cytokine capture antibody, for example an anti-interferon gamma antibody. The unoccupied spots on the culture dish or well are then blocked with a non-specific binding protein. Target cells, for example tumor cells, that endogenously synthesize the alternative splice form which has been used to stimulate PBLs are added to the culture dish or well. Alternatively, target cells can be pulsed with the peptide of interest. Activated PBLs are then added to the culture dish or well. If the activated PBLs specifically lyse the target cells, the PBLs secrete cytokines such as interferon-gamma, which is captured by the cytokine capture antibody initially coated onto the culture dish or well. A secondary antibody that recognized a different epitope of interferon gamma is then used to detect the presence of any interferon-gamma secreted by the PBLs and captured by the cytokine capture antibody. The secondary antibody can be conjugated with a detectable label, such as fluorescent or radioactive label. Identification of peptides of the invention which induce MHC-restricted cytotoxic T lymphocyte responses by the ELISPOT method is shown in Example 5 below.
Splenocytes from mice inoculated with GM-CSF only were used as a control (“control”). HC2 20d2/c tumor cells pulsed with 10 micrograms/ml of the immunizing peptide, or mouse serum albumin (for splenocytes from GM-CSF only treated animals) were used as the target cells for the treatment and control splenocytes, respectively. Untreated HC2 20d2/c tumor cells were used as negative control target cells.
The splenocytes were incubated at various ratios (from 10:1 to 2:1) with target cells in triplicate, and lytic events were identified with an ELISPOT assay using anti-interferon-gamma antibody as the cytokine capture antibody. The specific spots per 10^6 cells were quantitated using the lytic events from untreated target cells as the background, and then performing linear regression analysis.

[2] abbreviates: splenocytes of immunized mice which had undergone tumor regression, target cells pulsed with the vaccinating peptide.

Bridges are numbered along the chain shown (N, C = ends). Roman numbers before positions name the chains, in order. Where no end group is shown, it is not given here.

Regarding “V V K Q L V Q T P P L P P (VVKQLVQTPPLPP; VEGFB alt splice #1 peptide) [SEQ ID NO: 75, peptide encoded by alternatively spliced murine VEGFB mRNA]”, in the experiment on HC2 20d2/c tumor cells (HC2 20d2/c tumor model), the “time until which regression is seen” value is on record as about 20 days after vaccination and the tumor progression result was “progress from that point onward”. Besides, the “CTL response compared with mouse treated with SEQ ID NO: 82 (EGFRvIII)” value in experiment [1] was “greater than that seen for the mouse treated with SEQ ID NO: 82”. The “CTL response (ELISPOT)” value in experiment [1] (setting [2]) is recorded as “strong CTL responses”.

For the substance “RTKPEKCDKPRRC (disulfide I:13-II:13; cysteine pairing not given here) [SEQ ID NO: 81 homodimer]”, in the experiment with HC2 20d2/c tumor cells (HC2 20d2/c tumor model), the “time at which tumor regression is most notable” value worked out at 12 days after vaccination, the “time until which regression is seen” value is recorded as about 20 days after vaccination, the tumor progression result is listed as “initially shows tumor progression” and the “reduction in average tumor volume” value is reported as “strong reduction in average tumor volumes”. For the same substance, in the experiment with HC2 20d2/c tumor cells (HC2 20d2/c tumor model, listed as SEQ ID NO: 81), the tumor progression entry is on record as “progress from that point onward”. Also, the “tumor regression (average tumor volume vs. time)” value with HC2 20d2/c tumor cells is recorded as “induce tumor regression to some degree”.

Consider “SEQ ID NO: 82: peptide derived from a mutant epidermal growth factor receptor (EGFR) protein called EGFRvIII (LEEKKGNYVVTDHC; EGFRvIII peptide) [reference compound]”, for which the tumor progression entry in the experiment on HC2 20d2/c tumor cells (HC2 20d2/c tumor model) is listed as “progression was not as dramatic as the control mice”. In addition, the “duration of initial tumor progression” value with HC2 20d2/c tumor cells (HC2 20d2/c tumor model, after vaccination) is reported as “approximately 5 days”. Moreover, in the experiment on HC2 20d2/c tumor cells, the “tumor regression (average tumor volume vs. time)” value is listed as “distinct regression noted thereafter”.

Consider “L E R S E S C E D R C P (LERSESCEDRCP; VEGFD alt splice #2 peptide) [SEQ ID NO: 79, peptide encoded by alternatively spliced murine VEGFD mRNA]”, for which the “reduction in average tumor volume” value in the experiment with HC2 20d2/c tumor cells (HC2 20d2/c tumor model) is “strong reduction in average tumor volumes”.

Consider “R T K P E K C D K P R R (RTKPEKCDKPRR; VEGF alt splice #1) [SEQ ID NO: 73, peptide encoded by alternatively spliced mouse VEGF mRNA]”, for which, in the experiment on HC2 20d2/c tumor cells, the “tumor regression (average tumor volume vs. time)” value is “pattern of regression similar to that found for the EGFRvIII peptide”. Also, the “CTL response compared with mouse treated with SEQ ID NO: 82 (EGFRvIII)” value in experiment [1] is listed as “greater than that seen for the mouse treated with SEQ ID NO: 82”. Further, the “CTL response (ELISPOT)” value in experiment [1] (setting [2]) is recorded as “strong CTL responses”; in experiment [1] (splenocytes of vaccinated mouse which had not undergone tumor regression), “poor CTL responses”.

The record behind these values is patent US8021658B2, “Alternative splice forms of proteins as basis for multiple therapeutic modalities” (Thomas Jefferson University, priority 2001, dated 2011).
